Data: US10071976B2, “Small molecule fatty acid synthase inhibitors” (Sanford Burnham Prebys Medical Discovery Institute, priority 2014, dated 2018)
pIC50: −log10 of the molar value. Where “and” joins values, the source holds several entries; their conditions need not be identical. Equal values may be shown once.

Legend:
[1] = system: prostate cancer PC-3 cells; experiment: De novo palmitate synthesis from 13C-glucose in whole cells (GC-MS); type: cell-based; settings: for de novo palmitate synthesis/DMSO (%): 20 μM, [U-13C]-glucose 24 h, pH 7.8, relative to DMSO control
Method: The ability of compounds to block biosynthesis of palmitate in whole cells (prostate cancer PC-3 cells) was measured by feeding cells isotopically labeled glucose (^13C-glucose) and measuring the incorporation of ^13C into palmitate by GC-MS.
Prostate cancer PC-3 cell were incubated with 20 μM of FASN inhibitors and labeled with [U-13C]-glucose for 24 h, pH 7.8. The incorporation of ^13C into palmitate from labeled glucose was determined by extracting fatty acids and resolving them by GC-MS. The mass distributions for fatty acid methyl esters for C16:0 (palmitate) were corrected for isotope natural abundance, and the corrected isotope patterns were used to calculate the labeling of acetyl-CoA in palmitate based on a binomial probability distribution of the incorporation of labeled acetyl units into the fatty acid chain.

[2] = system: sodium channel; experiment: Eurofins Panlabs binding panel: sodium channel; settings: 10 μM
Method: (§1) To further evaluate selectivity and identify any off-target effects, compound 37 was tested against a commercial panel of 34 binding assays (enzymes, receptors & ion channels) through Eurofins Panlabs. […] Compound 37 was also tested in a commercial panel of 17 diverse proteases (Reaction Biology).

[3] = target: T1, FASN-TE (Homo sapiens, UniProt P49327); experiment: In-vitro biochemical assay measuring FAS-TE inhibition (OMFH substrate, fluorescence)
Method: Min wells: Substrate+No enzyme+DMSO, Max wells: Substrate+Enzyme+DMSO, Sample wells: Substrate+Enzyme+Test compounds, Reference compound: Orlistat (make a fresh 10 mM stock in DMSO each time). 384-well black, low-volume plate (Greiner #784076)
Assay Protocol: • 1) ECHO transfer 160 nL of 125× Compound (or DMSO for control wells) per well. • 2) For Max and Sample wells: Add 10 μL of Enzyme (2×; 1.8 μM) prepared in RXN Buffer. For Min wells: Add 10 μL of RXN Buffer (No Enzyme). • 3) For all wells: Add 10 μL of Substrate (2×; 20 μM) prepared in diH2O+10% DMSO. • 4) Centrifuge plate for 1 minute at 1,000 rpm. • 5) Measure fluorescence every 5 minutes for 1-1.5 hours using the BMG POLARstar (ex 485 nm/em 520 nm; Gain=1015; 25 flashes). • 6) All volumes can be adjusted but the final DMSO concentration should be kept at about 6%.
Data Analysis: • 1) Calculate slopes and express as % Activity (Min wells=0%; Max wells=100%). • 2) Then, using Prism, calculate the IC50 values.

[4] = target: T2, FASN thioesterase (Homo sapiens, UniProt P49327); experiment: FP-PEG-TAMRA labeling of recombinant FASN thioesterase; type: binding; settings: recombinant enzyme, 20 μM final, pH 7.8
T2 construct: label the active site of the FASN thioesterase and ACOT4
Method: (§2) Additionally, studies were performed to test the selectivity of Compounds 1, 16, 22, and 37 for the FASN thioesterase over its most closely related human homolog, the enzyme called ACOT4 (see FIG. 3). Both proteins were mixed and pretreated with the compound (20 μM final, pH 7.8) before addition of the fluorescent activity probe FP-PEG-TAMRA. Respective fluorescence of the bands was detected on a Hitachi flatbed scanner and a greyscale version used for quantitative analysis using ImageJ. Recombinant forms of each enzyme were incubated with compound 16, compound 1, compound 37, and compound 22. FP-TAMRA was included in this mixture to label the active site of the FASN thioesterase and ACOT4. […] These findings further attest to the high degree of selectivity of compounds 1, 16, 37 and 22 for the FASN thioesterase.

[5] = Pharmacokinetic study, IP dosing; type: in vivo; settings: mice, 10 mg/kg IP
Method: A pharmacokinetic (PK) study of Compound 37 dosed systemically (IP) in mice was conducted. At 10 mg/kg (IP) compound 37 attained plasma levels post dosing of >3 μM up to 30 min., >2 μM up to 1 h, and >1 μM up to 2 h.

[6] = target: T3, CYP450 2C19 (Homo sapiens, UniProt P33261); experiment: Eurofins Panlabs binding panel: CYP450 2C19; settings: 10 μM
T3 construct: purchased Eurofins Panlabs
Method: as §1

[7] = system: chymotrypsin; experiment: Reaction Biology protease panel: chymotrypsin; type: biochemical; settings: read-out: chymotrypsin inhibition (IC50)
Method: as §1

[8] = system: 17 diverse proteases; experiment: Commercial panel of 17 diverse proteases (Reaction Biology); type: biochemical; settings: up to 100 μM
Method: as §1

[9] = target: T1, FASN-TE; experiment: Eadie-Hofstee enzymology analysis; type: biochemical
Method: Furthermore, using a classical enzymology analysis (Eadie-Hofstee) compound 37 was determined to have a non-competitive mode of inhibition (see FIG. 2).

[10] = target: T4, ACOT4 (Homo sapiens, UniProt Q8N9L9); experiment: FP-PEG-TAMRA labeling of recombinant ACOT4; type: binding; settings: recombinant enzyme, 20 μM final, pH 7.8
T4 sequence (Q8N9L9 1-421): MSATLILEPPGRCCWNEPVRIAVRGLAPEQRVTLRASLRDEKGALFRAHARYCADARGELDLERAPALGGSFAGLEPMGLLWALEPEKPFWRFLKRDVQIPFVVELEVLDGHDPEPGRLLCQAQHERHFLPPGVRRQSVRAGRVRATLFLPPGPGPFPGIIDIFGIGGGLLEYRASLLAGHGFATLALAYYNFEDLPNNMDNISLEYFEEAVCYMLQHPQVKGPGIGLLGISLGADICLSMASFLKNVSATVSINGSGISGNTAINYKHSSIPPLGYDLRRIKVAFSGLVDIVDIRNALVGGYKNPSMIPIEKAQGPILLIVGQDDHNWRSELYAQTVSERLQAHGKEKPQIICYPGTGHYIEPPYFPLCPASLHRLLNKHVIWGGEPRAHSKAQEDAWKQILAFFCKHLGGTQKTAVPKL
Method: as §2

[11] = system: enzymes, receptors & ion channels; experiment: Commercial panel of 34 binding assays (Eurofins Panlabs); settings: 10 μM
Method: as §1

[12] = target: T5, FASN (Homo sapiens, UniProt P49327); experiment: Competition with activity-based probe FP-PEG-TAMRA in PC-3 whole cell lysate: FASN; type: binding; settings: PC-3 lysate, 20 μM final, pH 7.8
T5 construct: lysates of the prostate tumor line (PC3), which expresses FASN; endogenous in cells; host or cells: PC-3 prostate tumour cells (whole cell lysate)
Method: Studies were conducted to determine the selectivity of compound 16 for FASN over other human thioesterases. The ability of the compounds to bind the FASN holoenzyme was tested by assessing their ability to compete for the binding of an activity-based probe that covalently attaches to the active site of the FASN thioesterase. Thioesterases are members of the serine hydrolase family, which also includes a number of other types of enzymes including proteases, dipeptidyl peptidases, epoxide hydrolases, etc. To help assess the selectivity of compound 16, an activity-based probe polyethyleneglycol-6-carboxytetramethyl-rhodamine (FP-PEG-TAMRA) that binds covalently to the catalytic serine of all serine hydrolases was used. These studies were done by assessing the ability of compound 16 to compete for the binding of the activity-based probe in whole cell lysates. Several analogs of compound 16 were tested in this assay using lysates of the prostate tumor line (PC3), which expresses FASN, along with numerous other serine hydrolases. The PC-3 lysate was incubated with 8 different FASN inhibitors, including compounds 1, 16 and 97. Then the activity-based probe (FP-PEG-TAMRA) was added to each sample to label the serine hydrolases in the lysate.

T2 sequence (P49327 2207-2511 limits assumed): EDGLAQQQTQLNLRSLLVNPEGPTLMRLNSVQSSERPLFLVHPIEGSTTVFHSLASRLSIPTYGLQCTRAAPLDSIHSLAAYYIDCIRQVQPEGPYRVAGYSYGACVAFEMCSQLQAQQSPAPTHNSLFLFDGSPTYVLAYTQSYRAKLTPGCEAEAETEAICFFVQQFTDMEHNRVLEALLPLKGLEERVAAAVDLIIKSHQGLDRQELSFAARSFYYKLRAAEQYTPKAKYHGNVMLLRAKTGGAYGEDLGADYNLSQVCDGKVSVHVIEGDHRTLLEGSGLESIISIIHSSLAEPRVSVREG
T1 sequence (P49327 2207-2511 limits assumed): as above
T5 sequence (P49327 whole entry): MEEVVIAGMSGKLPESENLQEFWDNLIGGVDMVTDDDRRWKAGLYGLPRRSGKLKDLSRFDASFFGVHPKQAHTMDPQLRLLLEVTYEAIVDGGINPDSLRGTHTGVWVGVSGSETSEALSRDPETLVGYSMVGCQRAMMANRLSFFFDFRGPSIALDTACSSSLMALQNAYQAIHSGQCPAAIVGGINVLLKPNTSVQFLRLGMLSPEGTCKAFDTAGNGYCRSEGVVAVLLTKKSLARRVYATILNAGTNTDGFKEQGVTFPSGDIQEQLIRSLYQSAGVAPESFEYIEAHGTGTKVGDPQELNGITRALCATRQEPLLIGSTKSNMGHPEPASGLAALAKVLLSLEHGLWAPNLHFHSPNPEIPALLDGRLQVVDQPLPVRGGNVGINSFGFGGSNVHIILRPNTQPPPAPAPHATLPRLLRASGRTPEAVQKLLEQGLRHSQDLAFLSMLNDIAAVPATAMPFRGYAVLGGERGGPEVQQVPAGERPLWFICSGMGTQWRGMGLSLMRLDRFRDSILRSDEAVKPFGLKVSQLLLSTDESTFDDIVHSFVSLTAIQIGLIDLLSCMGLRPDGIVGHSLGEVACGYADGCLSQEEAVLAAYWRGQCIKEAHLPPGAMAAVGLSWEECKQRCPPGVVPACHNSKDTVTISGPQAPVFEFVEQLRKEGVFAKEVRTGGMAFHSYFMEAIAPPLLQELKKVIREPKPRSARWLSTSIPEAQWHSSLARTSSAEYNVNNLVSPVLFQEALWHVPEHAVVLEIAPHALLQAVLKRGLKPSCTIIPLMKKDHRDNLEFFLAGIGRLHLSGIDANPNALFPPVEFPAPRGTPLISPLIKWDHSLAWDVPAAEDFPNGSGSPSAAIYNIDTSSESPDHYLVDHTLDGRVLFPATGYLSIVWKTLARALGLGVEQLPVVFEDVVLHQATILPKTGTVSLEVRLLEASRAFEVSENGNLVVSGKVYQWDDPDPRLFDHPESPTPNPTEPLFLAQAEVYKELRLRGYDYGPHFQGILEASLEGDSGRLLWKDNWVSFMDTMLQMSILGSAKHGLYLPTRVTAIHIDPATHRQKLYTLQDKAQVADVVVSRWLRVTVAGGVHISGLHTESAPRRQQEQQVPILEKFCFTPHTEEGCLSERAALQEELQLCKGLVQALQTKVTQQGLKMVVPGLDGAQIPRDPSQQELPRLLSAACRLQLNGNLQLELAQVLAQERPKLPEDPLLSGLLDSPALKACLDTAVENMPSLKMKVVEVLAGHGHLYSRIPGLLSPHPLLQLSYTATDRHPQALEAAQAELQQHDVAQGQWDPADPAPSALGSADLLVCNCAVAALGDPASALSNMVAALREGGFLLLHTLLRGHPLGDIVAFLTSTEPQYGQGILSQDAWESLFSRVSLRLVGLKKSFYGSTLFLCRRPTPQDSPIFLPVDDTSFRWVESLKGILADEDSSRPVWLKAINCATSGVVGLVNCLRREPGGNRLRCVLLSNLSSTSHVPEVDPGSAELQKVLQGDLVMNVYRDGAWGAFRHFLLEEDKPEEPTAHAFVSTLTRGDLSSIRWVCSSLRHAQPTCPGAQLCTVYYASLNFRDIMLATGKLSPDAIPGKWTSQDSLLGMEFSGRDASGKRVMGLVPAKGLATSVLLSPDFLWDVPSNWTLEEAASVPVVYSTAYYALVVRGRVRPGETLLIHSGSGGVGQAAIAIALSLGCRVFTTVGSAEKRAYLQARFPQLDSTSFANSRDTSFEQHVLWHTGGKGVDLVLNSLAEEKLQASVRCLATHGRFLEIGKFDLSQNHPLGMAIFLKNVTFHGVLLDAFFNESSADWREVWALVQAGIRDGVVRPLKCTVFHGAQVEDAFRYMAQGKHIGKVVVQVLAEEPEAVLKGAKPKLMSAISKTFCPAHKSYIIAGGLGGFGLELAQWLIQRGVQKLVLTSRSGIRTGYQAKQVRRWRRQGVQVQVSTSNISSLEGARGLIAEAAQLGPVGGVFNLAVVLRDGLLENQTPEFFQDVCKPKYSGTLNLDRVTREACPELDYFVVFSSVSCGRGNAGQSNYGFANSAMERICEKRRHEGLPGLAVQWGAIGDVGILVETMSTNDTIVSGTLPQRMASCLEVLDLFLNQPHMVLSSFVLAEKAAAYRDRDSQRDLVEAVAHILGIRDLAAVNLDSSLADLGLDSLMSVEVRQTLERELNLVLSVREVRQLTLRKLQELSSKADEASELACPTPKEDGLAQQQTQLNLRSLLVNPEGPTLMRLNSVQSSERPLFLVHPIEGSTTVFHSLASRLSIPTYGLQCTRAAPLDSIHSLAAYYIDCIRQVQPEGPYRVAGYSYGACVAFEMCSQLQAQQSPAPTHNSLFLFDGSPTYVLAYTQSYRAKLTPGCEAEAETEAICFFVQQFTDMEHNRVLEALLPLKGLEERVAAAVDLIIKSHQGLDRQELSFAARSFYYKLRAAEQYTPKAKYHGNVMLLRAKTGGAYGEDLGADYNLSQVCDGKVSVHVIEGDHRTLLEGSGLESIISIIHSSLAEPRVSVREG
T3 sequence (P33261 whole entry): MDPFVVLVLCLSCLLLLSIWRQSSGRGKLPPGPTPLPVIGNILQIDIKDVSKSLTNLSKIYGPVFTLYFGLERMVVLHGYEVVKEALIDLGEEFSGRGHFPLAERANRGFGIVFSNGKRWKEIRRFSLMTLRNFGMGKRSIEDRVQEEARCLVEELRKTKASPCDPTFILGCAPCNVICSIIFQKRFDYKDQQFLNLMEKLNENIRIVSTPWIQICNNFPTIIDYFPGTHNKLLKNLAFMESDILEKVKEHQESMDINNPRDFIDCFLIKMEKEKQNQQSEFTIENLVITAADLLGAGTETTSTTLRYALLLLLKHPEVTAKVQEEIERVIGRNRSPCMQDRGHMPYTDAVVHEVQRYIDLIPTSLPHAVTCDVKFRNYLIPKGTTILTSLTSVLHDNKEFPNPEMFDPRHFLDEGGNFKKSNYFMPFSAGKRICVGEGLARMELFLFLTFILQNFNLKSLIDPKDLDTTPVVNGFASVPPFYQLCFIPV

Row | SMILES | pIC50 [3] | also measured
1 | CCC(C)C(=O)Nc1nc(-c2ccc(S(=O)(=O)N(CC)CC)cc2)cs1 (stereo not shown) [Compound 37] | 6.52 | inhibition of palmitate synthesis in whole cells [1]: dose-dependently inhibits palmitate synthesis; binding interaction [2]: 74%; binding of FP-TAMRA to the active site of the FASN thioesterase [4]: blocked the binding of FP-TAMRA; plasma levels post dosing ([5]; up to 30 min): > 3000 nM; plasma levels post dosing ([5]; up to 1 h): > 2000 nM; plasma levels post dosing ([5]; up to 2 h): > 1000 nM; binding interaction [6]: 50%; pIC50 [7]: 5.77; interactions in panel of 17 proteases [8]: Only one interaction; mode of inhibition [9]: non-competitive; activity labeling of ACOT4 [10]: without effect; binding interactions >50% in panel of 34 binding assays [11]: Only two binding interactions>50%
2 | CCCCC(=O)Nc1nc(-c2ccc(S(=O)(=O)N3CCOCC3)cc2)cs1 [Compound 1] | 6.70 and 6.69 and 6.26 | inhibition of palmitate synthesis in whole cells [1]: inhibitory activity; de novo palmitate synthesis/DMSO (%) [1]: 40%; inhibition of FASN (blocking of FP-TAMRA binding) [12]: showed inhibition of FASN; binding of FP-TAMRA to the active site of the FASN thioesterase [4]: blocked the binding of FP-TAMRA; activity labeling of ACOT4 [10]: without effect
3 | CCCCC(=O)Nc1nc(-c2ccc(S(=O)(=O)N3CCC(C)CC3)cc2)cs1 [Compound 22] | 6.30 | binding of FP-TAMRA to the active site of the FASN thioesterase [4]: blocked the binding of FP-TAMRA; activity labeling of ACOT4 [10]: without effect
4 | CC1CCN(S(=O)(=O)c2ccc(-c3csc(NC(=O)C(C)C)n3)cc2)CC1 [Compound 24] | 6.18 | –
5 | CCC(=O)Nc1nc(-c2ccc(S(=O)(=O)N3CCCC3)cc2)cs1 [Compound 26] | 6.19 | –
6 | CCCCC(=O)Nc1nc(-c2ccc(S(=O)(=O)N3CCSCC3)cc2)cs1 [Compound 12] | 6.15 | –
7 | COc1ccccc1C(=O)Nc1nc(-c2ccc(S(=O)(=O)N3CCOCC3)cc2)cs1 [Compound 5] | 4.93 | –
8 | CCN(CC)S(=O)(=O)c1ccc(-c2csc(NC(=O)C3CC3)n2)cc1 [Compound 35] | 6.00 | –
9 | CN(C)S(=O)(=O)c1ccc(-c2csc(NC(=O)C3CC3)n2)cc1 [Compound 41] | 5.92 | –
10 | CCCCC(=O)Nc1nc(-c2ccc(S(=O)(=O)N3CCCC3)cc2)cs1 [Compound 8] | 6.70 | –
11 | O=C(COc1ccccc1)Nc1nc(-c2ccc(S(=O)(=O)N3CCOCC3)cc2)cs1 [Compound 3] | 6.38 | –

More lines, main results first:

Row | pIC50 [3] | SMILES | also measured
12 | ≤ 4.10 | Cc1ccc(NC(=O)Cc2nc(-c3ccc(S(=O)(=O)N4CCOCC4)cc3)cs2)cc1 [Compound 97] | inhibition of palmitate synthesis in whole cells [1]: did not inhibit palmitate synthesis; de novo palmitate synthesis/DMSO (%) [1]: 95%; inhibition of FASN (blocking of FP-TAMRA binding) [12]: did not; activity in the enzyme-based assay ([3]; negative control): no activity
13 | ≤ 4.10 | CCN(CC)S(=O)(=O)c1ccc(-c2csc(Cc3cccc(C(F)(F)F)c3)n2)cc1 [Compound 108] | –
14 | 5.83 | O=S(=O)(c1ccc(-c2csc(-c3ccc(F)cc3)n2)cc1)N1CCOCC1 [Compound 116] | –
15 | 5.93 | O=S(=O)(c1ccc(-c2csc(N3CCCC3)n2)cc1)N1CCOCC1 [Compound 98] | –
16 | ≤ 4.10 | CCN(CC)S(=O)(=O)c1ccc(-c2csc(C)n2)cc1 [Compound 82] | –
17 | 6.24 | CCCC(=O)Nc1nc(-c2ccc(S(=O)(=O)N3CCCCC3C)cc2)cs1 (stereo not shown) [Compound 46] | –
18 | 5.80 | CC(C)CC(=O)Nc1nc(-c2ccc(S(=O)(=O)N3CCCC3)cc2)cs1 [Compound 52] | –
19 | 5.37 | CCCCCCCC(=O)Nc1nc(-c2ccc(S(=O)(=O)N3CCCCC3C)cc2)cs1 (stereo not shown) [Compound 47] | –
20 | 5.30 | CCN(CC)S(=O)(=O)c1ccc(-c2csc(Cc3cccc(I)c3)n2)cc1 [Compound 112] | –
21 | 4.66 | CC(C)c1nc(-c2ccc(S(=O)(=O)N3CCOCC3)cc2)cs1 [Compound 115] | –
22 | 6.07 | CCCCCCC(=O)Nc1nc(-c2ccc(S(=O)(=O)N3CCCC3)cc2)cs1 [Compound 51] | –
23 | 6.59 | CCC(CC)C(=O)Nc1nc(-c2ccc(S(=O)(=O)N3CCCC3)cc2)cs1 [Compound 49] | –
